Measurements reported in patent US8178506B2, “Oligomeric compounds and compositions for use in modulation of small non-coding RNAs” (Regulus Therapeutics Inc., priority 2003, dated 2012).
In the oligonucleotide strings, read from the 5' end, every base follows the letter of its sugar. An asterisk marks phosphorothioate; unmarked linkages are phosphodiester. Other units and linkages are bracketed, terminal groups are in braces. A string of capitals states the bases alone. e = 2'-O-(2-methoxyethyl) (MOE); [5mC] = 5-methylcytosine

What was measured:
mir-21 miRNA = assay: pGL3-mir-21 sensor luciferase assay in HeLa cells; type: cell-based, human
Method in brief: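 HeLa cells were transiently transfected with pGL3-Control carrying a mir-21-complementary site in the luciferase 3′UTR, which endogenous mir-21 silences. 2′-MOE oligomeric compounds were given at 10 or 50 nM, or at 1.9, 5.5, 16.7 and 50 nM for dose response. Luciferase was normalized to pRL-CMV and expressed as percent of the plasmid-only untreated control.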

ob/ob mice = assay: ob/ob mice: plasma parameters, food consumption, marker gene mRNA; type: in vivo, mouse; settings: ob/ob mice; for mRNA expression levels of the Glut4, aP2 and HSL marker genes: 25 mg/kg two times per week
Method in brief: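 Male C57Bl/6J ob/ob mice received oligomeric compound or control at 25 mg/kg s.c. twice weekly, for 4 weeks on a 10-15% fat diet or for 6 weeks on high-fat diet. Plasma glucose and insulin were measured at 0, 2 and 4 weeks; i.p. glucose/insulin tolerance tests were run; serum lipids, liver triglycerides and histology were assessed, with liver, BAT and WAT mRNA quantified by real-time PCR.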

[1] = Table 44, pGL3-mir-21 sensor-expressing HeLa cells, 10 nM
[2] = Table 44, pGL3-mir-21 sensor-expressing HeLa cells, 50 nM
[3] = 25 mg/kg s.c. two times per week, 6 weeks

Row | Substance | luciferase expression % UTC (mir-21 miRNA; [1]) [% UTC] | luciferase expression % UTC (mir-21 miRNA; [2]) [% UTC] | plasma glucose levels (fed) (ob/ob mice; [3]) | mRNA expression levels of the Glut4, aP2 and HSL marker genes (ob/ob mice) | other results
1 | 327901 (antisense eT*eG*eA*eG*e[5mC]*eT*eA*e[5mC]*eA*eG*eT*eG*e[5mC]*eT*eT*e[5mC]*eA*eT*e[5mC]*eT*e[5mC]*eA) [compound 327901] | 74.2 | 83.1 | – | – | –
2 | 327917 (antisense eT*e[5mC]*eA*eA*e[5mC]*eA*eT*e[5mC]*eA*eG*eT*e[5mC]*eT*eG*eA*eT*eA*eA*eG*e[5mC]*eT*eA) [compound 327917] | 1037.6 | 847.5 | – | – | luciferase expression % UTC (mir-21 miRNA; Table 50, pGL3-mir-21 sensor-expressing HeLa cells, 1.9 nM, normalized to pRL-CMV): 522 % UTC; luciferase expression % UTC (mir-21 miRNA; Table 50, pGL3-mir-21 sensor-expressing HeLa cells, 5.5 nM, normalized to pRL-CMV): 1293 % UTC; luciferase expression % UTC (mir-21 miRNA; Table 50, pGL3-mir-21 sensor-expressing HeLa cells, 16.7 nM, normalized to pRL-CMV): 2470 % UTC; luciferase expression % UTC (mir-21 miRNA; Table 50, pGL3-mir-21 sensor-expressing HeLa cells, 50 nM, normalized to pRL-CMV): 4534 % UTC
3 | ACTTTCGGTTATCTAGCTTTA [ISIS 327892] (chemistry not given here) [uniform 2′-MOE PS; targets mir-131-2/mir-9] | – | – | reduced beginning at approximately four weeks after the start of treatment | – | plasma glucose levels, fasted state (ob/ob mice; day 19): significant reductions in plasma glucose levels
4 | TGAGCTACAGTGCTTCATCTCA [ISIS 327901] (chemistry not given here) [uniform 2′-MOE PS; targets mir-143] | – | – | – | slightly reduced | –
5 | TGAGCTACAGTGCTTCATCTCA [ISIS 340927] (chemistry not given here) [5-10-7 2′-MOE gapmer PS; targets mature mir-143] | – | – | generally slightly lower | slightly reduced | plasma cholesterol levels (ob/ob mice; [3]): slightly decrease over time; plasma triglyceride levels (ob/ob mice; [3]): generally slightly lower
